Among the data in ChEMBL document CHEMBL3875186, “Design, synthesis, and characterization of rhein analogs as novel inhibitors of scavenger receptor A” (Bioorg Med Chem Lett, 2017) are inhibition values, retold here.

The target of assay [1] is T1, Macrophage scavenger receptor types I and II (Mus musculus) (UniProt P30204).
T1 sequence (whole entry): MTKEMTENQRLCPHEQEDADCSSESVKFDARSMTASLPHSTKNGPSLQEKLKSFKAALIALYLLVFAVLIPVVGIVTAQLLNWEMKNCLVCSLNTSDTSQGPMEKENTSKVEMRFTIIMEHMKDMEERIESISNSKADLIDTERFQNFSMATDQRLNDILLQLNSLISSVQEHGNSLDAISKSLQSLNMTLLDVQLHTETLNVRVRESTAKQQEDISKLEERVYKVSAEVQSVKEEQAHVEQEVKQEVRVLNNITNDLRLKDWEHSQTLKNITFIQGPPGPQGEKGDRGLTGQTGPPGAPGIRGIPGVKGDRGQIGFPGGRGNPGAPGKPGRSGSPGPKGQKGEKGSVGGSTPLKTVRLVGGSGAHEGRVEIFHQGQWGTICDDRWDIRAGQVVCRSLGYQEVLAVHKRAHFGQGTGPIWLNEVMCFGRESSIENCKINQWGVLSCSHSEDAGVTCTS
Nature of the assay: Antagonist activity at mouse recombinant SRA extracellular domain expressed in baculovirus infected Sf21 insect cells assessed as inhibition of protein-induced reduction of IL2 gene promoter activation in anti CD3/CD28 antibody activated wild type C57BL/6 mouse B3Z T-cells at 50 uM after 5 hrs by beta-galactosidase reporter gene assay.

In assay [2] the target is T1, Macrophage scavenger receptor types I and II (Mus musculus). As to the kind of experiment: Antagonist activity at SRA in RM1-OVA tumor bearing wild type C57BL/6 mouse derived CD11bpositiveLy6ChighLy6Gnegative myeloid-derived suppressive cells co-cultured with splenocytes assessed as reduction in protein-mediated inhibition of anti CD3/CD28 antibody-induced T-cell activation by measuring IL-2 secretion pretreated for 2 hrs followed by splenocytes addition measured after 56 hrs by ELISA. (In general: ELISA stands for enzyme-linked immunosorbent assay.)

The target is the same in assay [3]. Nature of the assay: Antagonist activity at SRA in RM1-OVA tumor bearing wild type C57BL/6 mouse derived CD11bpositiveLy6ChighLy6Gnegative myeloid-derived suppressive cells co-cultured with splenocytes assessed as reduction in protein-mediated inhibition of anti CD3/CD28 antibody-induced T-cell proliferation at 10 to 20 uM preincubated for 2 hrs followed by splenocytes addition measured after 72 hrs by [3H]-thymidine incorporation assay. Background: Incorporation of labelled thymidine or its analogues reports DNA synthesis.

Assay [4] shares this target. Nature of the assay: Antagonist activity at SRA in RM1-OVA tumor bearing wild type C57BL/6 mouse derived CD11bpositiveLy6ChighLy6Gnegative myeloid-derived suppressive cells co-cultured with splenocytes assessed as reduction in protein-mediated inhibition of anti CD3/CD28 antibody-induced T-cell activation by measuring IL-2 secretion at 10 to 20 uM pretreated for 2 hrs followed by splenocytes addition measured after 56 hrs by ELISA.

Activity calls are given as the source filed them. The calls are words filed in the database; no cut-off is given here.

Consider `O=C1c2cccc(O)c2C(=O)c2c(O)cccc21`, for which the inhibition result in assay [1] and in assay [3] was “Active” each time. The inhibition result in assay [2] is “Dose-dependent effect”.
Turning to `O=C(O)c1cc(O)c2c(c1)C(=O)c1cccc(O)c1C2=O`, the inhibition result in assay [3] was “Active”.
With `O=C(O)c1ccc2c(c1)C(=O)c1cccc(O)c1C2=O`, the inhibition result in assay [1], in assay [4] and in assay [3] was “Active” each time.
